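Tested at 5 concentrations; 48 h exposure; 96-well plates; endpoints linearly interpolated, else capped at highest concentration. The concentration for 50% growth inhibition is given as GI50. TGI: total growth inhibition.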
Tests used:
Test in all cases: growth of human tumour cells (NCI), 48 h
DU-145 prostate = test system: DU-145 prostate
HCT-116 colon = test system: HCT-116 colon
SW-620 colon = test system: SW-620 colon
A498 renal = test system: A498 renal
M14 melanoma = test system: M14 melanoma
NCI-H460 lung = test system: NCI-H460 lung
SK-OV-3 ovarian = test system: SK-OV-3 ovarian
HCT-15 colon = test system: HCT-15 colon
OVCAR-5 ovarian = test system: OVCAR-5 ovarian
786-0 renal = test system: 786-0 renal

## N=C(N)c1ccc(-c2ccc(-c3ccccc3)s2)cc1F
DU-145 prostate
  GI50: 1130 nM
  TGI: 2380 nM

## CN(C)[C@@H]1C(=O)C(C(N)=O)=C(O)[C@@]2(O)C(=O)C3=C(O)c4c(O)cc(CN5CCc6ccccc6C5)c(Cl)c4C[C@H]3C[C@@H]12
DU-145 prostate
  GI50: 1640 nM
  TGI: 3040 nM
HCT-116 colon
  GI50: 1600 nM
  TGI: 2970 nM
SW-620 colon
  GI50: 1920 nM
  TGI: 3.6 µM
A498 renal
  GI50: 1760 nM
  TGI: 3.29 µM
M14 melanoma
  GI50: 1610 nM
  TGI: 3.03 µM
NCI-H460 lung
  GI50: 1790 nM
  TGI: 3.4 µM
SK-OV-3 ovarian
  GI50: 1730 nM
  TGI: 3.18 µM
HCT-15 colon
  GI50: 53.1 nM
  TGI: 2360 nM
OVCAR-5 ovarian
  GI50: 1620 nM
  TGI: 3.02 µM
786-0 renal
  GI50: 1760 nM
  TGI: 3.3 µM

Source: PubChem BioAssay (NCI)
